Laboratory results: patent US20110086886A2, “INSECTICIDAL ISOXAZOLINES” (Bayer CropScience AG, priority 2006, published 2011)

Columns and labels:
Spodoptera litura larvae = experiment: Test for Spodoptera litura larvae (leaf dip); assay type: in vivo; settings: effective component concentration of 500 ppm, 3rd-instar larvae on dipped sweet potato leaves, after 7 days; for pest or weed control at 500 ppm: foliar, 168 h, read-out: insecticidal ratio
Method: (§1) In order to obtain a preparation of a proper active compound, 1 part by weight of an active compound was mixed with the stated amounts of solvent and emulsifier and the mixture was diluted to a specified concentration with water.
The leaves of sweat potatoes were dipped in the test solution diluted to a specified concentration with water. After these leaves were dried in air to remove the chemical solution, they were placed in a Petri dish of 9 cm in diameter, in which 10 Spodoptera litura larvae of the 3rd-instar were set free. The Petri dish was placed in a thermostatic chamber kept at 25° C. and the leaves of sweat potatoes were added after 2 days and 4 days, to examine the number of dead larvae after 7 days, thereby calculating the insecticidal ratio of the chemical solution.
In this test, an average of the results in two Petri dishes in one section was calculated.

Aulacophora femoralis = experiment: Test for Aulacophora femoralis (spray test); assay type: in vivo; settings: effective component concentration of 500 ppm; 2nd-instar, dipped cucumber leaves; after 7 days
Method: as §1
The leaves of cucumbers were dipped in the aqueous solution diluted to a specified concentration with water. After the chemical solution was dried in air, these leaves were placed in a plastic cup, in which sterilized black soil was placed. 5 Aulacophora femoralis of the 2nd-instar were set free in the soil, to examine the number of dead insects after 7 days, thereby calculating the insecticidal ratio of the chemical solution.

| Compound | insecticidal ratio (Spodoptera litura larvae) [%] | insecticidal ratio (Aulacophora femoralis) [%] | pest or weed control at 500 ppm (Spodoptera litura larvae) [%] |
| --- | --- | --- | --- |
| 1-(4-{5-[3,5-bis(trifluoromethyl)phenyl]-5-(trifluoromethyl-4,5-dihydroisoxazol-3-yl}-2-nitrophenyl)-2H-tetrazole [Compound 178] | 100 | – | – |
| O=[N+]([O-])c1cc(C2=NOC(c3cccc(Cl)c3)(C(F)(F)F)C2)ccc1-n1cncn1 (racemic) [Compound 90] | 100 | 100 | – |
| FC(F)(F)C1(c2cc(Cl)cc(Cl)c2)CC(c2ccc(-n3cncn3)cc2)=NO1 (racemic) [Compound 91] | 100 | 100 | – |
| Fc1cc(C2=NOC(c3cc(Cl)cc(Cl)c3)(C(F)(F)F)C2)ccc1-n1cncn1 (racemic) [Compound 93] | 100 | – | – |
| FC(F)(F)C1(c2cc(Cl)cc(Cl)c2)CC(c2ccc(-n3cncn3)c(Cl)c2)=NO1 (racemic) [Compound 94] | 100 | 100 | – |
| FC(F)(F)C1(c2cc(Cl)cc(Cl)c2)CC(c2ccc(-n3cncn3)cc2Cl)=NO1 (racemic) [Compound 96] | 100 | – | – |
| FC(F)(F)C1(c2cc(Cl)cc(Cl)c2)CC(c2ccc(-n3cncn3)c(Br)c2)=NO1 (racemic) [Compound 97] | 100 | 100 | – |
| FC(F)(F)C1(c2cc(Cl)cc(Cl)c2)CC(c2ccc(-n3cncn3)c(I)c2)=NO1 (racemic) [Compound 98] | 100 | 100 | – |
| Cc1cc(C2=NOC(c3cc(Cl)cc(Cl)c3)(C(F)(F)F)C2)ccc1-n1cncn1 (racemic) [Compound 99] | 100 | 100 | – |
| FC(F)(F)c1cc(C2=NOC(c3cc(Cl)cc(Cl)c3)(C(F)(F)F)C2)ccc1-n1cncn1 (racemic) [Compound 100] | 100 | 100 | – |
| COc1cc(C2=NOC(c3cc(Cl)cc(Cl)c3)(C(F)(F)F)C2)ccc1-n1cncn1 (racemic) [Compound 103] | 100 | 100 | – |
| CCC(=O)Nc1cc(C2=NOC(c3cc(Cl)cc(Cl)c3)(C(F)(F)F)C2)ccc1-n1cncn1 (racemic) [Compound 107] | 100 | 100 | – |
| COC(=O)Nc1cc(C2=NOC(c3cc(Cl)cc(Cl)c3)(C(F)(F)F)C2)ccc1-n1cncn1 (racemic) [Compound 109] | 100 | 100 | – |
| FC(F)(F)C1(c2cc(Cl)cc(Cl)c2)CC(c2ccc(-n3cncn3)nc2)=NO1 (racemic) [Compound 114] | 100 | 100 | – |
| FC(F)(F)c1cccc(C2(C(F)(F)F)CC(c3ccc(-n4cncn4)cc3)=NO2)c1 (racemic) [Compound 122] | 100 | 100 | – |
| FC(F)(F)c1ccc(C2(C(F)(F)F)CC(c3ccc(-n4cncn4)cc3)=NO2)cc1 (racemic) [Compound 123] | 100 | – | – |
| N#Cc1cc(C2=NOC(c3cccc(C(F)(F)F)c3)(C(F)(F)F)C2)ccc1-n1cncn1 (racemic) [Compound 126] | 100 | 100 | – |
| O=[N+]([O-])c1cc(C2=NOC(c3cccc(C(F)(F)F)c3)(C(F)(F)F)C2)ccc1-n1cncn1 (racemic) [Compound 127] | 100 | 100 | – |
| FC(F)(F)c1cc(C(F)(F)F)cc(C2(C(F)(F)F)CC(c3ccc(-n4cncn4)cc3)=NO2)c1 (racemic) [Compound 132] | 100 | 100 | – |
| FC(F)(F)c1cc(C(F)(F)F)cc(C2(C(F)(F)F)CC(c3ccc(-n4cncn4)c(Cl)c3)=NO2)c1 (racemic) [Compound 133] | 100 | – | – |
| FC(F)(F)c1cc(C(F)(F)F)cc(C2(C(F)(F)F)CC(c3ccc(-n4cncn4)c(Br)c3)=NO2)c1 (racemic) [Compound 134] | 100 | 100 | – |
| O=[N+]([O-])c1cc(C2=NOC(c3cc(C(F)(F)F)cc(C(F)(F)F)c3)(C(F)(F)F)C2)ccc1-n1cncn1 (racemic) [Compound 136] | 100 | 100 | – |
| O=[N+]([O-])c1cc(C2=NOC(c3cccc(Cl)c3)(C(F)(F)F)C2)ccc1-n1cnnn1 (racemic) [Compound 147] | – | 100 | – |
| FC(F)(F)C1(c2cc(Cl)cc(Cl)c2)CC(c2ccc(-n3cnnn3)c(Cl)c2)=NO1 (racemic) [Compound 150] | 100 | 100 | – |
| FC(F)(F)C1(c2cc(Cl)cc(Cl)c2)CC(c2ccc(-n3cccn3)cc2)=NO1 (stereo not shown) [Compound 2] | 100 | – | – |
| FC(F)(F)C1(c2cc(Cl)cc(Cl)c2)CC(c2ccc(-n3cc(Cl)cn3)cc2)=NO1 (stereo not shown) [Compound 4] | 100 | – | – |

| Compound | insecticidal ratio (Spodoptera litura larvae) [%] | insecticidal ratio (Aulacophora femoralis) [%] | pest or weed control at 500 ppm (Spodoptera litura larvae) [%] |
| --- | --- | --- | --- |
| FC(F)(F)C1(c2cc(Cl)cc(Cl)c2)CC(c2ccc(-n3cc(Br)cn3)cc2)=NO1 (stereo not shown) [Compound 5] | 100 | – | – |
| N#Cc1cnn(-c2ccc(C3=NOC(c4cc(Cl)cc(Cl)c4)(C(F)(F)F)C3)cc2)c1 (stereo not shown) [Compound 7] | 100 | – | – |
| FC(F)(F)C1(c2cc(Cl)cc(Cl)c2)CC(c2ccc(-n3cccn3)c(Cl)c2)=NO1 (stereo not shown) [Compound 8] | 100 | – | – |
| O=[N+]([O-])c1cnn(-c2ccc(C3=NOC(c4cc(Cl)cc(Cl)c4)(C(F)(F)F)C3)cc2Br)c1 (stereo not shown) [Compound 12] | 100 | – | – |
| N#Cc1cc(C2=NOC(c3cc(Cl)cc(Cl)c3)(C(F)(F)F)C2)ccc1-n1cccn1 (stereo not shown) [Compound 13, 5-[5-(3,5-dichlorophenyl)-5-(trifluoromethyl)-4,5-dihydroisoxazol-3-yl]-2-(1H-pyrazol-1-yl)benzonitrile] | – | – | 100 |
| N#Cc1cc(C2=NOC(c3cc(Cl)cc(Cl)c3)(C(F)(F)F)C2)ccc1-n1cc(F)cn1 (stereo not shown) [Compound 16] | 100 | – | – |
| N#Cc1cc(C2=NOC(c3cc(Cl)cc(Cl)c3)(C(F)(F)F)C2)ccc1-n1cc(Br)cn1 (stereo not shown) [Compound 18] | 100 | – | – |
| N#Cc1cc(C2=NOC(c3cc(Cl)cc(Cl)c3)(C(F)(F)F)C2)ccc1-n1cc(I)cn1 (stereo not shown) [Compound 19] | 100 | – | – |
| O=[N+]([O-])c1cc(C2=NOC(c3cc(Cl)cc(Cl)c3)(C(F)(F)F)C2)ccc1-n1cccn1 (stereo not shown) [Compound 23] | 100 | – | – |
| Cc1cnn(-c2ccc(C3=NOC(c4cc(Cl)cc(Cl)c4)(C(F)(F)F)C3)cc2[N+](=O)[O-])c1 (stereo not shown) [Compound 24] | 100 | – | – |
| O=[N+]([O-])c1cc(C2=NOC(c3cc(Cl)cc(Cl)c3)(C(F)(F)F)C2)ccc1-n1cc(Cl)cn1 (stereo not shown) [Compound 26] | 100 | – | – |
| O=[N+]([O-])c1cc(C2=NOC(c3cc(Cl)cc(Cl)c3)(C(F)(F)F)C2)ccc1-n1cc(Br)cn1 (stereo not shown) [Compound 27] | 100 | – | – |
| O=[N+]([O-])c1cc(C2=NOC(c3cc(Cl)cc(Cl)c3)(C(F)(F)F)C2)ccc1-n1cc(I)cn1 (stereo not shown) [Compound 28] | 100 | – | – |
| O=[N+]([O-])c1cc(C2=NOC(c3cc(Cl)cc(Cl)c3)(C(F)(F)F)C2)ccc1-n1cc(C(F)(F)F)cn1 (stereo not shown) [Compound 29] | 100 | – | – |
| N#Cc1cc(C2=NOC(c3cc(C(F)(F)F)cc(C(F)(F)F)c3)(C(F)(F)F)C2)ccc1-n1cc([N+](=O)[O-])cn1 (stereo not shown) [Compound 47] | 100 | – | – |
| FC(F)(F)C1(c2cc(Cl)cc(Cl)c2)CC(c2ccc(-n3ccnc3)cc2)=NO1 (stereo not shown) [Compound 48] | 100 | – | – |
| O=[N+]([O-])c1cc(C2=NOC(c3cc(Cl)cc(Cl)c3)(C(F)(F)F)C2)ccc1-n1ccnc1 (stereo not shown) [Compound 52] | 100 | – | – |
| O=[N+]([O-])c1cc(C2=NOC(c3cc(Cl)cc(Cl)c3)(C(F)(F)F)C2)ccc1-n1ccnn1 (stereo not shown) [Compound 64] | – | 100 | – |
| O=[N+]([O-])c1cc(C2=NOC(c3cc(Cl)cc(Cl)c3)(C(F)(F)F)C2)ccc1-n1nccn1 (stereo not shown) [Compound 72] | 100 | – | – |
| N#Cc1cc(C2=NOC(c3ccccc3)(C(F)(F)F)C2)ccc1-n1cncn1 (stereo not shown) [Compound 80] | – | 100 | – |
| O=[N+]([O-])c1cc(C2=NOC(c3cc(F)cc(F)c3)(C(F)(F)F)C2)ccc1-n1cncn1 (stereo not shown) [Compound 85] | – | 100 | – |
| Nc1cc(C2=NOC(c3cc(Cl)cc(Cl)c3)(C(F)(F)F)C2)ccc1-n1cncn1 (stereo not shown) [Compound 105, 5-[5-(3,5-dichlorophenyl)-5-(trifluoromethyl)-4,5-dihydroisoxazol-3-yl]-2-(1H-1,2,4-triazol-1-yl)aniline] | – | – | 100 |
| FC(F)(F)C1(c2cc(Cl)cc(Cl)c2)CC(c2ccc(-n3cnnc3)cc2)=NO1 (stereo not shown) [Compound 141, 4-{4-[5-(3,5-dichlorophenyl)-5-(trifluoromethyl)-4,5-dihydroisoxazol-3-yl]phenyl}-4H-1,3,4-triazole] | – | – | 100 |
| FC(F)(F)C1(c2cc(Cl)cc(Cl)c2)CC(c2ccc(-n3cnnn3)c(I)c2)=NO1 (stereo not shown) [Compound 152] | 100 | – | – |
| FC(F)(F)c1cc(C(F)(F)F)cc(C2(C(F)(F)F)CC(c3ccc(-n4cnnn4)cc3)=NO2)c1 (stereo not shown) [Compound 162] | 100 | – | – |
| O=[N+]([O-])c1cc(C2=NOC(c3cccc(C(F)(F)F)c3)(C(F)(F)F)C2)ccc1-n1ncnn1 (stereo not shown) [Compound 176] | 100 | – | – |
